The results in this text go back to ChEMBL document CHEMBL2074172, “Possible involvement of multiple P-glycoprotein-mediated efflux systems in the transport of verapamil and other organic cations across rat intestine” (Pharm Res, 1995).

This assay addresses Multidrug resistance protein 1a (Rattus norvegicus) (UniProt Q6PSM0). As to the kind of experiment: TP_TRANSPORTER: serosal to mucosal transport in SD rat intestinal segment. In kind it is functional. The conditions noted are these: Sprague-Dawley, Intestine.

Multidrug resistance protein 1a (Rattus norvegicus), sequence (Q6PSM0 as listed by the source): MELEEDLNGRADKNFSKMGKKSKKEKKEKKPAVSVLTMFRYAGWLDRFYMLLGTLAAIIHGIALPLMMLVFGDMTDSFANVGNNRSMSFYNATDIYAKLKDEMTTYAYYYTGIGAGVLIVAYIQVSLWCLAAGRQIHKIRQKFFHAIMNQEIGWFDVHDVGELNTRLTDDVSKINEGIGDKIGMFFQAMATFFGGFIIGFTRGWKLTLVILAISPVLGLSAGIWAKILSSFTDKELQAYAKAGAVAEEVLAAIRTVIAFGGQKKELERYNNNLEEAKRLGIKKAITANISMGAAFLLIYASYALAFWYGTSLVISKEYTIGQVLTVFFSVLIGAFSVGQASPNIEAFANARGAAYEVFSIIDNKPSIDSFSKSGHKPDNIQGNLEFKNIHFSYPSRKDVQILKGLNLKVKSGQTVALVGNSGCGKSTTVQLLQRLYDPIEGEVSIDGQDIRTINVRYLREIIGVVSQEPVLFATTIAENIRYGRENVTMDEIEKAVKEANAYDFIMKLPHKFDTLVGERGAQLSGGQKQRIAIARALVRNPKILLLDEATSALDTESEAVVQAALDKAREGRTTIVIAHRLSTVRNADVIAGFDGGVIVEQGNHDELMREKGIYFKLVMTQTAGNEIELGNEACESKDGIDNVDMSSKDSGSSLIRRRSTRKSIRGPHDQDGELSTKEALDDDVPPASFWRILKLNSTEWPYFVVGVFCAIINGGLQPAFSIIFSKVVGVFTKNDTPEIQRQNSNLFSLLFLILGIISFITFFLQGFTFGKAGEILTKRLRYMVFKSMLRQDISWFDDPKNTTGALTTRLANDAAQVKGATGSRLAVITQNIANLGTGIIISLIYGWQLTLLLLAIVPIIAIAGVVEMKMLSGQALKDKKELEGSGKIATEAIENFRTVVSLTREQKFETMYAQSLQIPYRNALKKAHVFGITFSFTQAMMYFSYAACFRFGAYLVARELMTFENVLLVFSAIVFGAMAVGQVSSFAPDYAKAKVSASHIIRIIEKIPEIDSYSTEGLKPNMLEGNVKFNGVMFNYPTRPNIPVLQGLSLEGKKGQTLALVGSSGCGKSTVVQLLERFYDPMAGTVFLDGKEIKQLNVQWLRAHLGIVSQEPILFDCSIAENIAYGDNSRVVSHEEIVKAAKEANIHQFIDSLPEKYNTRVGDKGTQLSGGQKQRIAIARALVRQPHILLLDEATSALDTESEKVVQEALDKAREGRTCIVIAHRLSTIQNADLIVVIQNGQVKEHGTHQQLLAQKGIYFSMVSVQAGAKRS

Take `CC(C)[N+](C)(CCOC(=O)C1c2ccccc2Oc2ccccc21)C(C)C`: the Activity entry was “substrate [+]”.

As to `COc1ccc(CCN(C)CCCC(C#N)(c2ccc(OC)c(OC)c2)C(C)C)cc1OC` (configuration not stated), the Activity result was “substrate [+]”.
